Data published in ChEMBL document CHEMBL1201862, “PubChem BioAssay data set” (2004).
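The compound was tested at five concentrations on cells cultured in 96-well plates, with a 48-hour exposure period. At the GI50, growth is halved.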 Calls of active or inactive are those of the source. No stated cut-off is given here; in the data, active = GI50 up to about 1.1 µM and inactive = higher.

Assays:
Test in all cases: NCI-60 cell line screen, 48 h
DU-145 = system: DU-145
EKVX = system: EKVX
MOLT-4 = system: MOLT-4
NCI/ADR-RES = system: NCI/ADR-RES
SF-295 = system: SF-295
SNB-19 = system: SNB-19
HL-60 = system: HL-60
Malme-3M = system: Malme-3M
TK-10 = system: TK-10
OVCAR-4 = system: OVCAR-4
UACC-257 = system: UACC-257
SF-539 = system: SF-539
HCT-116 = system: HCT-116
T47D = system: T47D
U-251 = system: U-251
MDA-MB-231 = system: MDA-MB-231
SK-MEL-5 = system: SK-MEL-5
SK-MEL-28 = system: SK-MEL-28
SR = system: SR
HCC 2998 = system: HCC 2998

Measured: GI50

C=C(C)[C@H]1C2=CC(C(=O)OC)=C(C[C@H](C(=C)C)[C@@H](O)[C@@H](O)C3=C[C@H]1OC3=O)O2
inactive: DU-145 > 100 µM | EKVX > 100 µM | MOLT-4 97.5 µM | NCI/ADR-RES > 100 µM | SF-295 > 100 µM | SNB-19 > 100 µM | HL-60 61 µM | Malme-3M > 100 µM | TK-10 > 100 µM | OVCAR-4 > 100 µM | UACC-257 > 100 µM | SF-539 > 100 µM | HCT-116 > 100 µM | T47D > 100 µM | U-251 > 100 µM | MDA-MB-231 > 100 µM | SK-MEL-5 > 100 µM

O=C(Cn1c(=O)ccn(C2OC(CO)C(O)C2F)c1=O)c1ccc(F)cc1 (stereo not drawn)
inactive: DU-145 > 100 µM | EKVX > 100 µM | MOLT-4 > 100 µM | NCI/ADR-RES > 100 µM | SF-295 > 100 µM | SNB-19 > 100 µM | HL-60 > 100 µM | Malme-3M > 100 µM | TK-10 > 100 µM | UACC-257 > 100 µM | SF-539 > 100 µM | SK-MEL-28 > 100 µM | HCT-116 > 100 µM | T47D > 100 µM | U-251 > 100 µM | MDA-MB-231 > 100 µM | SK-MEL-5 > 100 µM

CC(C)N1[C@@H]2CCCC[C@H]2N(C(C)C)[PH]1=O
inactive: DU-145 > 100 µM | EKVX > 100 µM | MOLT-4 > 100 µM | NCI/ADR-RES > 100 µM | SF-295 > 100 µM | TK-10 > 100 µM | UACC-257 > 100 µM | SF-539 > 100 µM | HCT-116 > 100 µM | SR > 100 µM | T47D > 100 µM | SK-MEL-5 > 100 µM | HCC 2998 > 100 µM

COc1ccc(C(=O)C(CC2C(=O)CC(C)(C)C(C(=O)C(=O)Nc3c(C)cccc3C)C2=O)c2ccc(OC)cc2)cc1 (stereo not drawn)
inactive: DU-145 > 100 µM | EKVX > 100 µM | MOLT-4 > 100 µM | NCI/ADR-RES > 100 µM | SF-295 > 100 µM | SNB-19 > 100 µM | HL-60 96.6 µM | TK-10 > 100 µM | OVCAR-4 > 100 µM | UACC-257 > 100 µM | SF-539 > 100 µM | SK-MEL-28 > 100 µM | HCT-116 > 100 µM | SR 22.9 µM | U-251 > 100 µM | MDA-MB-231 > 100 µM | SK-MEL-5 > 100 µM | HCC 2998 > 100 µM

CN(C)CCn1nc(N)c2nc3cc(C(F)(F)F)ccc3nc21
inactive: DU-145 54.8 µM | EKVX > 100 µM | MOLT-4 33.2 µM | NCI/ADR-RES > 100 µM | SF-295 > 100 µM | SNB-19 > 100 µM | HL-60 34.6 µM | Malme-3M > 100 µM | TK-10 > 100 µM | OVCAR-4 > 100 µM | UACC-257 > 100 µM | SK-MEL-28 > 100 µM | HCT-116 > 100 µM | SR > 100 µM | U-251 > 100 µM | MDA-MB-231 > 100 µM | SK-MEL-5 > 100 µM | HCC 2998 75.9 µM

CN(C)c1ccc(/C=N/NC2=N/C(=C\c3ccco3)C(=O)N2)cc1
inactive: DU-145 > 100 µM | EKVX > 100 µM | MOLT-4 > 100 µM | NCI/ADR-RES > 100 µM | SF-295 > 100 µM | SNB-19 > 100 µM | HL-60 > 100 µM | Malme-3M > 100 µM | TK-10 > 100 µM | UACC-257 > 100 µM | SF-539 > 100 µM | SK-MEL-28 > 100 µM | HCT-116 > 100 µM | T47D > 100 µM | U-251 > 100 µM | MDA-MB-231 > 100 µM | SK-MEL-5 > 100 µM

NNC(=O)CS(=O)(=O)Nc1ncccn1
inactive: DU-145 > 100 µM | EKVX > 100 µM | NCI/ADR-RES > 100 µM | SF-295 > 100 µM | SNB-19 > 100 µM | Malme-3M > 100 µM | TK-10 13.2 µM | OVCAR-4 > 100 µM | UACC-257 > 100 µM | SF-539 > 100 µM | SK-MEL-28 > 100 µM | HCT-116 > 100 µM | T47D > 100 µM | U-251 > 100 µM | MDA-MB-231 > 100 µM | SK-MEL-5 > 100 µM

Cc1oc2nc1C(=O)NCc1nc(cs1)C(=O)N[C@H](C(C)C)c1nc(cs1)C(=O)N[C@H]2C
inactive: DU-145 79.3 µM | EKVX > 100 µM | MOLT-4 81.7 µM | NCI/ADR-RES 30.1 µM | SF-295 18.4 µM | SNB-19 > 100 µM | Malme-3M > 100 µM | OVCAR-4 > 100 µM | UACC-257 > 100 µM | SF-539 42.3 µM | SK-MEL-28 > 100 µM | HCT-116 45.8 µM | T47D 28.5 µM | U-251 > 100 µM | MDA-MB-231 9.57 µM | SK-MEL-5 23.1 µM | HCC 2998 43.7 µM
